According to patent US10413504B2, “Intravaginal ring drug delivery system” (Merck Sharp & Dohme B.V., priority 2013, dated 2019):

Assay: ENG and E2 solubility, diffusion coefficient and permeability in EVA copolymers (two-layer polymer slab, fit with Fick's 2nd law)
Settings: ENG
Method: For the determination of the solubility concentration and diffusion coefficient a method was developed. The method consists in preparing polymer slab composites with one layer highly loaded with active ingredient (60 wt %) on top of a layer of placebo polymer. The two layers were first pressed separately in a hot press and thereafter combined, also using the press, into a two layer structure. The diffusion of the active ingredient from the loaded layer through the placebo layer is measured in time, for the active ingredient/polymer combination adequate analysis method. Thereafter the experimental diffusion data is fitted with a mathematical model based on Fick's 2nd law of diffusion in one direction. The differential equation is solved using trigonometrical series with the solubility concentration and diffusion coefficient as only unknown variables.

- Cs (solubility in EVA copolymer) (VA % 9): 0.4 mg/g
- D (diffusion coefficient in EVA copolymer) (VA % 9): 2.29 ×10^−13 m^2/s
- Cs (solubility in EVA copolymer) (VA % 15): 0.9 mg/g
- D (diffusion coefficient in EVA copolymer) (VA % 15): 3.17 ×10^−13 m^2/s
- Cs (solubility in EVA copolymer) (VA % 28): 3.22 mg/g
- D (diffusion coefficient in EVA copolymer) (VA % 28): 4.80 ×10^−13 m^2/s
Structure (SMILES): C#C[C@]1(O)CC[C@H]2[C@@H]3CCC4=CC(=O)CC[C@@H]4[C@H]3C(=C)C[C@@]21CC [ENG, etonogestrel]
